According to ChEMBL document CHEMBL5365504, “Psychoplastogens: A Novel Therapeutic Approach for Neurological Diseases and Disorders” (ACS Med Chem Lett, 2023):

Experiments:
Format in all cases: functional, cell-based
Settings in all cases: 72 h
Cortical neurone [1] = assay: Induction of neurite outgrowth in Wistar rat Cortical neuron cells assessed as increase in neurite length incubated for 3 days by DAPI staining based high-content screening method
Cortical neurone [2] = assay: Induction of neurite outgrowth in Wistar rat Cortical neuron cells assessed as increase in neurite number incubated for 3 days by DAPI staining based high-content screening method
Cortical neurone [3] = assay: Induction of neurite outgrowth in Wistar rat Cortical neuron cells assessed as increase in number of branch points incubated for 3 days by DAPI staining based high-content screening method

Compound | EC50 (Cortical neurone [1]) [nM] | EC50 (Cortical neurone [2]) [nM] | EC50 (Cortical neurone [3]) [nM]
C[C@H](Cn1ccc2cc(OCc3ccc(F)cc3)ccc21)N(C)C | < 10 | < 10 | < 10
C[C@@H](N)Cn1ccc2cc(OCc3cccc(F)c3)ccc21 | < 10 | 10 | < 10
C[C@H](Cn1ccc2cc(OCc3ccccc3F)ccc21)N(C)C | < 10 | < 10 | < 10
C[C@H](Cn1ccc2cc(OCc3ccccc3)ccc21)N1CCCC1 | < 10 | < 10 | 10
C[C@H](Cn1ccc2cc(OCc3cccc(F)c3)ccc21)N(C)C | < 10 | < 10 | < 10
CN[C@H](C)Cn1ccc2cc(OCc3ccccc3)ccc21 | < 10 | < 10 | < 10
CCN(CC)[C@H](C)Cn1ccc2cc(OCc3ccccc3)ccc21 | < 10 | < 10 | < 10
C[C@@H](N)Cn1ccc2cc(OCc3ccccc3F)ccc21 | 10 | < 10 | < 10
C[C@H](Cn1ccc2cc(OCc3ccccc3)ccc21)N(C)C | < 10 | 10 | 10
C[C@H](Cn1ccc2nc(OCc3ccccc3)ccc21)N(C)C | < 10 | < 10 | < 10
C[C@@H](N)Cn1ccc2cc(OCc3ccc(F)cc3)ccc21 | 10 | 10 | 10
